Experiments:
[1] = test system: human hair follicle dermal papilla cells (HFDPCs); assay: Proliferation of hair follicle dermal papilla cells (MTT); format: cell-based; details: 5 µM, or 50 µM, 72 hours, absorbance at 540 nm, FIGS. 1 and 2
Experimental: In this experimental example, effects of a peptide according to an embodiment on proliferation of human hair follicle dermal papilla cells were examined by evaluating a change in viability of the human hair follicle dermal papilla cells (HFDPCs). Specifically, human hair follicle dermal papilla cells were seeded on a 96-well plate at a density of 4×10^3 cells/well, followed by incubation in a mesenchymal stem cell complete medium for 24 hours. Subsequently, the culture medium was replaced with a serum free mesenchymal stem cell complete medium, followed by incubation for 24 hours. Thereafter, a peptide according to an embodiment was aliquoted thereinto at a concentration of […], 5 µM, or 50 µM, followed by incubation for 72 hours at 37 °C. Then, the culture was washed with PBS, and 10 µL of a 5 mg/ml MTT solution was aliquoted into each well. After incubating the culture in a CO2 incubator for 4 hours, the culture medium was removed, and 100 µL of dimethyl sulfoxide (DMSO) was added thereto, followed by stirring for 10 minutes. Thereafter, absorbance was measured at a wavelength of 540 nm by using a spectrophotometer. Meanwhile, a untreated group was used as a control, and a group treated with 1 µM EGF was used as a positive control.

[2] = test system: Ha3-II, Keratin 5, Keratin 14, and Keratin 19 in human hair outer root sheath cells (HHORSCs); assay: RT-PCR of activators of outer root sheath cells; format: cell-based; details: RNA level; 5 µM, or 50 µM, 24 hours; FIGS. 11 and 12
Experimental: In this experimental example, effects of a peptide according to an embodiment on expression of type I cuticular Ha3-II (Ha3-II), Keratin 5, Keratin 14, and Keratin 19, which are cytokine related to activation of human hair outer root sheath cells (HHORSCs), were examined. Specifically, human hair outer root sheath cells were seeded on a 6-well plate at a density of 4×10^5 cell/well, followed by incubation for 24 hours in a mesenchymal stem cell complete media. Subsequently, the culture medium was replaced with a serum free mesenchymal stem cell complete medium, followed by incubation for 24 hours. Thereafter, a peptide according to an embodiment was aliquoted thereinto at a concentration of […], 5 µM, or 50 µM, followed by incubation for 24 hours at 37 °C. Then, gene expression was examined in the RNA level in the same manner as in Experimental Example 2-3 by using primers of Table 3 below. Meanwhile, a untreated group was used as a control, and a group treated with 50 nM EGF was used as a positive control.

beta-catenin = assay: Nuclear beta-catenin Western blot in hair follicle dermal papilla cells; format: cell-based, human; details: nuclear proteins, HDAC1 as nuclear marker, FIGS. 5 and 6
Experimental: In this experimental example, effects of a peptide according to an embodiment on proliferation mechanism of human hair follicle dermal papilla cells were examined. Specifically, human hair follicle dermal papilla cells were incubated in the same manner as in Experimental Example 2-2, and treated with a peptide according to an embodiment. Then, nuclear proteins were isolated from the culture by using a nuclear protein extraction kit (Thermo scientific, USA). Subsequently, expression levels of proteins were examined in the same manner as in Experimental Example 2-2 by using beta-catenin (cell signaling, USA) and HDAC1 (santa cruz, USA) antibodies. Meanwhile, a untreated group was used as a control, and a group treated with 10 ng/mL recombinant human Wnt-3a protein (rhWnt-3a, R&D systems (USA, MN)) was used as a positive control.

DKK-1 (Dickkopf-1) = assay: DKK-1 expression (Western blot) in DHT-treated hair follicle dermal papilla cells; format: cell-based, human; details: dihydrotestosterone (DHT) added; 5 µM, or 50 µM; FIGS. 9 and 10
ERF and AKT = assay: Western blot of proliferation-related factors (phospho-AKT, phospho-ERK) in hair follicle dermal papilla cells; format: cell-based, human; details: 5 µM, or 50 µM, 24 hours, FIGS. 3 and 4
Experimental: In this experimental example, effects of a peptide according to an embodiment on activation of factors related to proliferation of human hair follicle dermal papilla cells were examined. Specifically, human hair follicle dermal papilla cells were seeded on a 6-well plate at a density of 4×10^5 cells/well, followed by incubation in a mesenchymal stem cell complete medium for 24 hours. Thereafter, a peptide according to an embodiment was aliquoted thereinto at a concentration of […], 5 µM, or 50 µM, followed by incubation for 24 hours at 37 °C. Then, the culture was washed with PBS, and 100 µL of a lysis buffer to prepare a cell lysate. Subsequently, bicinchoninic acid (BCA) was quantified to prepare an equal amount of a protein sample, followed by electrophoresis using a 10 % SDS-PAGE gel. Thereafter, proteins separated by the SDS-PAGE were transferred to a PVDF membrane, and the reaction was blocked using a 5 % skim milk at room temperature for 30 minutes. Then, phospho-AKT and phospho-ERK (cell signaling, USA) antibodies were diluted in a 3 % BSA at 1:1000 and reacted with the blocked PVDF membrane at 4 °C for 16 hours. Subsequently, the reactants were washed with 0.1 % PBS-T (0.1 % Tween-20 in PBS) three times each for 15 minutes and reacted for 1 hour with a secondary antibody diluted with 5 % skim milk at 1:2000. […]

[3] = test system: HOXC13, MSX2, and FOXN1 in human hair germinal matrix cells (HHGMCs); assay: RT-PCR of activators of germinal matrix cells; format: cell-based; details: RNA level; 5 µM, or 50 µM, 24 hours; FIGS. 13 and 14
Experimental: In this experimental example, effects of a peptide according to an embodiment on expression of Homeobox protein Hox-C13 (HOXC13), Msh homeobox 2 (MSX2), and Forkhead box protein N1 (FOXN1), which are transcription factors related to activation of human hair germinal matrix cells ([…]), were examined. Specifically, human hair germinal matrix cells were seeded on a 6-well plate at a density of 4×10^5 cell/well, followed by incubation for 24 hours in a mesenchymal stem cell complete medium. Subsequently, the culture medium was replaced with a serum free mesenchymal stem cell complete medium, followed by incubation for 24 hours. Thereafter, a peptide according to an embodiment was aliquoted thereinto at a concentration of […], 5 μM, or 50 μM, followed by incubation for 24 hours at 37 °C. Then, gene expression was examined in the RNA level in the same manner as in Experimental Example 2-3 by using primers of Table 4 below. Meanwhile, a untreated group was used as a control, and a group treated with 50 nM EGF was used as a positive control.

[4] = test system: LEF-1, c-Myc, and cyclin D1; assay: RT-PCR of beta-catenin downstream target genes in hair follicle dermal papilla cells; format: cell-based, human; details: RNA level, FIG. 7 (Peptide-1: c-Myc, cyclin D1), FIG. 8 (Peptide-2: LEF-1, c-Myc, cyclin D1)
Experimental: In addition, a change in expression levels of lymphoid enhancer-binding factor-1 (LEF-1), c-Myc, and cyclin D1, which are downstream target genes of activating mechanism of beta-catenin, was examined. To this end, human hair follicle dermal papilla cells were incubated in the same manner in Experimental Example 2-2 and treated with a peptide according to an embodiment. Thereafter, the culture was washed with PBS and treated with 300 µL of easy blue (intron, Korea) to extract RNAs. Then, the extract RNAs were quantified by Nano drop, and cDNA was synthesized by using the RNAs as a template and using a cDNA synthesis kit (enzynomics, Korea). Then, polymerase chain reaction (PCR) was carried out using primers of Table 2 below and a PCR premix (enzynomics, Korea), followed by electrophoresis using a 1.5 % agarose gel, and gene expression was examined in the RNA level by a Bio-Rad gel image system.

Arg (R)-Cys (C)-Cys (C)-Gly (G) [Peptide-1]
proliferation of dermal papilla cells [1]: promoted
expression of Ha3-II, Keratin 14, and Keratin 19 [2]: increased
migration of beta-catenin from cytoplasm to a nucleus (beta-catenin): confirmed
expression of DKK-1 (DKK-1 (Dickkopf-1)): inhibited
phosphorylation of ERF and AKT (ERF and AKT): induced
expression of HOXC13, MSX2, and FOXN1 [3]: increased
expression of LEF-1, c-Myc, and/or cyclin D1 [4]: increased

— patent EP4620962A1, “PEPTIDE HAVING ACTIVITIES TO PROMOTE HAIR GROWTH AND AMELIORATE DAMAGED HAIR, AND USE THEREOF” (Caregen Co., Ltd., priority 2022, dated 2025)
